The record followed here is US20240156093A1 (priority 2021, published 2024).

SMILES strings stand for the structures. Converted amounts (≈) assume the structure as drawn.

A short description of data set [1]: physchem. The settings on record: 25 °C, water.
A short description of data set [2]: physchem.
Data set [3] deals with feline calicivirus (non-enveloped virus). The format is cell-based.
Data set [4] has as its system influenza virus (enveloped virus). The format is cell-based.

One may read the solubility as the dissolved amount per volume that the medium holds. Low values mean a poorly soluble substance, high ones a readily soluble substance. Regarding `CCCCCCCCC(=O)O` [pelargonic acid], the solubility in data set [1] came to 280 µg/mL (≈ 1.77 mM). A word on the pKa: it is the pH at which an ionisable group is half protonated. A high value points to a group that holds its proton tightly. `O=C(O)CCCCC(=O)O` [Adipic acid, adipic acid] came in with a pKa in data set [2] of 4.34.

In data set [1], `O=C(O)c1ccccc1C(=O)O` [Phthalic acid, phthalic acid] had a solubility of 7200 µg/mL (≈ 43.3 mM). The pKa in data set [2] worked out at 2.94. Turning to `CCCCCCC(=O)O` [enanthic acid], the solubility in data set [1] came out at 2400 µg/mL (≈ 18.4 mM). Same read-out and setting: as for `O=C(O)c1ccccc1O` [Salicylic acid, salicylic acid], the figure is 2000 µg/mL (≈ 14.5 mM); as for `O=C(O)c1cccc(C(=O)O)c1` [isophthalic acid], 130 µg/mL (≈ 0.783 mM). Consider `CCCCCCCCCCCC(=O)O` [Lauric acid, lauric acid], for which the solubility in data set [1] came out at 4.8 µg/mL (≈ 0.024 mM). Also, in data set [2], the pKa was 4.92. Consider `O=C(O)CCCCC(=O)O` [Comparative example 3, adipic acid], for which, in data set [3], the “Feline calicivirus: Antiviral activity value” worked out at 0.5 and the “Feline calicivirus: Virus infectivity titer common logarithmic value” was 6 PFU/cm^2. Moreover, the “Influenza virus: Antiviral activity value” in data set [4] is listed as 1.7.

For `Nc1ccc(C(=O)O)cc1` [4-aminobenzoic acid], the concentration in solution in data set [1] (solubility) was 6000 µg/mL (≈ 43.8 mM).

In turn, `O=C(O)/C=C/C(=O)O` [Fumaric acid, fumaric acid] yielded a solubility in data set [1] of 6300 µg/mL (≈ 54.3 mM). The molecule further came in with a pKa in data set [2] of 3.02. `O=C(O)c1ccc(C(=O)O)cc1` [terephthalic acid] displayed a solubility in data set [1] of 17 µg/mL (≈ 0.102 mM). `CCCCCCCC/C=C\CCCCCCCC(=O)O` [Oleic acid, oleic acid] displayed a pKa in data set [2] of 5.35. On to `CCCCCCCCCCCCc1ccc(S(=O)(=O)[O-])cc1.[Na+]` [Comparative example 2, sodium dodecylbenzene sulfonate], for which, in data set [3], the “Feline calicivirus: Antiviral activity value” amounted to 0.3 and the “Feline calicivirus: Virus infectivity titer common logarithmic value” is 6.2 PFU/cm^2. Further, in data set [4], the “Influenza virus: Antiviral activity value” came out at 2.0 and the “Influenza virus: Virus infectivity titer common logarithmic value” stood at 4.5 PFU/cm^2. In turn, `CCCCCC(=O)O` [caproic acid] came in with a solubility in data set [1] of 11000 µg/mL (≈ 94.7 mM).
